Measured values: PMC10747733, “N-Substituted 2-(Benzenosulfonyl)-1-Carbotioamide Derivatives Exert Antimicrobial and Cytotoxic Effects via Aldehyde Dehydrogenase Pathway: Synthesis, In Silico and In Vitro Studies” (Pharmaceuticals, 2023)
Values after ≈ are worked out from the molar mass of the structure shown.

Tested on: Gram-negative bacteria
Experiment: Broth microdilution, summary over reference Gram-negative bacteria
Type: cell-based
Excerpt: Reference strains of microorganisms that came from American Type Culture Collection (ATCC) (Manassas, VA, USA) were used for this study. The representative Gram-positive bacteria were as follows: Staphylococcus aureus ATCC 25923, Staphylococcus aureus ATCC 29213, Staphylococcus aureus ATCC 43300, Staphylococcus epidermidis ATCC 12228, Enterococcus faecalis ATCC 29212, Micrococcus luteus ATCC 10240, Bacillus subtilis ATCC 6633 and Bacillus cereus ATCC 10876. […]
The new compounds WZ1–WZ4 were assayed for both antibacterial and antifungal activity using the broth microdilution method in accordance with the European Committee on Antimicrobial Susceptibility Testing (EUCAST) and Clinical and Laboratory Standards Institute (CLSI) guidelines. […] The antimicrobial effect of compounds WZ1–WZ4 was determined in the concentration range from 2000 to 0.98 µg/mL.
Then, the microbial suspensions were introduced into each well of the microplate and incubated for 18–24 h at 35 °C. […] Next, the values of the minimum bactericidal concentration (MBC) and minimum fungicidal concentration (MFC) of WZ1–WZ4 were assessed. […] The lowest concentrations of compounds without microbial growth were read as MBC or MFC. […]

SMILES: CCCCCCNC(=S)NNS(=O)(=O)c1ccccc1 [WZ3, 2-(Benzenesulfonyl)-N-Hexylhydrazine-1-Carbothioamide]
- MIC (Gram-negative rods from Enterobacterales and Pseudomonas aeruginosa): 500 to 1000 µg/mL (≈ 1.58 to 3.17 mM)
- MIC (remaining Gram-negative bacteria (other than B. bronchiseptica and E. coli)): 1000 µg/mL (≈ 3.17 mM)
